Laboratory results published in publication PMC4929166, “Pharmacological evaluation of synthetic cannabinoids identified as constituents of spice” (Forensic Toxicology, 2016).

What was measured:
[1] = target: T1, human GPR55 (Homo sapiens, UniProt Q9Y2T6); assay: β-Arrestin recruitment assay (PathHunter) at GPR55; type: cell-based; conditions: for IC50: Human GPR55 IC50, β-arrestin assay, antagonist mode; for Human GPR55 % activation / Human GPR55 % inhibition: β-arrestin assay; for Human GPR55 % activation: percent in brackets beside EC50 >10 µM; for Human GPR55 % inhibition: percent in brackets beside IC50
T1 construct: β-galactosidase enzyme fragment (PathHunter complementation tag)
T1 sequence (Q9Y2T6 whole entry, the tested form may be a part): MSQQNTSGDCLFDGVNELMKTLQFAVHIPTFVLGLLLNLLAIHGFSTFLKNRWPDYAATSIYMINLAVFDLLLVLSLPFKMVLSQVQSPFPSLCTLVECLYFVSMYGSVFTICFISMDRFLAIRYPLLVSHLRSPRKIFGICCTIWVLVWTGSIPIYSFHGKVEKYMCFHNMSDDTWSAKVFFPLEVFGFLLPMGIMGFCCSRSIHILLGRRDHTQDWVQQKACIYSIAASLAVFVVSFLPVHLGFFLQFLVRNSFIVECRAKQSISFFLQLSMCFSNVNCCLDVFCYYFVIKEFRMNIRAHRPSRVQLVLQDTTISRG
Protocol: (§1) Recruitment of β-arrestin to the respective receptor was detected by using β-galactosidase enzyme fragment complementation technology (β-arrestin PathHunter™ assay, DiscoverX, Fremont, CA, USA) as previously described. Data were obtained from three independent experiments, performed in duplicates. Data were analyzed using Graph Pad Prism Version 4.02 (San Diego, CA, USA).

[2] = target: T2, human GPR18 (Homo sapiens, UniProt Q14330); assay: β-Arrestin recruitment assay (PathHunter) at GPR18; type: cell-based; conditions: for Human GPR18 % activation / Human GPR18 % inhibition: β-arrestin assay; for Human GPR18 % activation: percent in brackets beside EC50 >10 µM; for Human GPR18 % inhibition: percent in brackets beside IC50
T2 construct: β-galactosidase enzyme fragment (PathHunter complementation tag)
T2 sequence (Q14330 1-331): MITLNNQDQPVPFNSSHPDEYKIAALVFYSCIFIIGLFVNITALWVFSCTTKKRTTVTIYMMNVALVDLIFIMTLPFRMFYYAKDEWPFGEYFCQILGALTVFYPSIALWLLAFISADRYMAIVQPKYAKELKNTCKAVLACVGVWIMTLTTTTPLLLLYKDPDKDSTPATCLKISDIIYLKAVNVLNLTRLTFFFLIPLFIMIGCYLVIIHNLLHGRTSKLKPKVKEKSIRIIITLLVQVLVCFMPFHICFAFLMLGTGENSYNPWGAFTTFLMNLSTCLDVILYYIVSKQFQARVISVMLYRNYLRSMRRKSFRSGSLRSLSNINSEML
Protocol: as §1

[3] = target: T3, CB1 receptor (Homo sapiens, UniProt P21554); assay: biochemical; type: binding; parameters: expressed in transfected cells; host or cells: CHO cells (membrane preparation); conditions: for CB1 selectivity Ki CB2/KiCB1: Table S1, selectivity index from Ki values; for Ki: versus 0.1 nM [3H]CP55,940, CHO cell membranes, mean ± SEM of three to five experiments, read-out: Ki ± SEM Human CB1
T3 sequence (P21554 whole entry): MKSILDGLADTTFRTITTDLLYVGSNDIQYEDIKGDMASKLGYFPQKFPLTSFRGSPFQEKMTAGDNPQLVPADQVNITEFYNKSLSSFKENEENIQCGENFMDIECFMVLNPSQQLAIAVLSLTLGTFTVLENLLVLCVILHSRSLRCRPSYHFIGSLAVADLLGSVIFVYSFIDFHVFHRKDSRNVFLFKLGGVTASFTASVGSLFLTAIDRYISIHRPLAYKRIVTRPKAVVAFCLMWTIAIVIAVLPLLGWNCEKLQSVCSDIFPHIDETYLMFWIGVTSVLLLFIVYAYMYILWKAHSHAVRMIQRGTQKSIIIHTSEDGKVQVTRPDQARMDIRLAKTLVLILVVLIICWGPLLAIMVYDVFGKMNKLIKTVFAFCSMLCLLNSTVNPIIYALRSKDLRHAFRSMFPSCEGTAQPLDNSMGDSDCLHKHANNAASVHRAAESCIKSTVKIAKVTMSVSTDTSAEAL

[4] = target: CB2 receptor (Homo sapiens, UniProt P34972); assay: biochemical; type: binding; parameters: expressed in transfected cells; host or cells: CHO cells (membrane preparation); conditions: for CB2 selectivity Ki CB1/KiCB2: Table S1, selectivity index from Ki values; for Ki: versus 0.1 nM [3H]CP55,940, CHO cell membranes, mean ± SEM of three to five experiments, read-out: Ki ± SEM Human CB2
Sequence of CB2 receptor (P34972 whole entry): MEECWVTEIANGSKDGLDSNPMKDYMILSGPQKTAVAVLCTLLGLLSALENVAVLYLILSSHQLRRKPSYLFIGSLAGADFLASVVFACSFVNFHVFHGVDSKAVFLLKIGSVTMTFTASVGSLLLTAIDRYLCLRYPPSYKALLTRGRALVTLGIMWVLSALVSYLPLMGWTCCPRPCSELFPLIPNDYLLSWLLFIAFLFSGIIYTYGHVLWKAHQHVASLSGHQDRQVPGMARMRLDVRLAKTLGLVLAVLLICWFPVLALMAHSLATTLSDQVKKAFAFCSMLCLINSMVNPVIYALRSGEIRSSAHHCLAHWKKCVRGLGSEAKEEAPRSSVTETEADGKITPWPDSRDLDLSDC

[5] = target: T3, CB1 receptor; assay: cell-based; type: cell-based; parameters: expressed in transfected cells; host or cells: CHO cells; conditions: cAMP accumulation, forskolin 10 µM; test concentration 1 µM or 10 µM; normalized to CP55,940

`O=C(c1cccc2ccccc12)c1nn(CCCCCF)c2ccccc12` [Compound 29, THJ2201] was tested, and the EC50 [1] was over 10000 nM, the IC50 [1] was over 10000 nM and the “Human GPR55 % activation” value [1] was −1%. The “Human GPR55 % inhibition” value [1] was 47%, the EC50 [2] was over 10000 nM and the IC50 [2] was over 10000 nM. For the same molecule, the “Human GPR18 % activation” value [2] was 18%, the “Human GPR18 % inhibition” value [2] was 21% and the “CB1 selectivity Ki CB2/KiCB1” value [3] was 1.0. The Ki [3] was 1.34 ± 0.54 nM, the “CB2 selectivity Ki CB1/KiCB2” value [4] was 1.0 and the Ki [4] was 1.32 ± 0.39 nM.
In the case of `CCCCCn1nc(C(=O)c2cccc3ccccc23)c2ccccc21` [Compound 28, THJ018], the EC50 [1] is reported as over 10000 nM, the IC50 [1] is reported as 8200 ± 2110 nM and the “Human GPR55 % activation” value [1] is reported as 6%. The EC50 [2] was over 10000 nM, the IC50 [2] was over 10000 nM and the “Human GPR18 % activation” value [2] was 33%. For the same molecule, the “Human GPR18 % inhibition” value [2] was −5%, the Ki [3] was 5.84 ± 1.32 nM and the “CB2 selectivity Ki CB1/KiCB2” value [4] was 1.3. The Ki [4] was 4.57 ± 0.28 nM.
In the case of `CCCCCn1cc(C(=O)c2ccccc2OC)c2ccccc21` [Compound 33, RCS-4], the Ki [3] is reported as 26.6 ± 6.6 nM, the “CB2 selectivity Ki CB1/KiCB2” value [4] is reported as 9.3 and the Ki [4] is reported as 2.86 ± 0.39 nM.
In the case of `O=C(Oc1cccc2cccnc12)c1cn(Cc2ccc(F)cc2)c2ccccc12` [Compound 26, FUB-PB-22], the EC50 [1] is reported as over 10000 nM, the IC50 [1] is reported as over 10000 nM and the “Human GPR55 % activation” value [1] is reported as 5%. For the same molecule, the “Human GPR55 % inhibition” value [1] was 24%, the EC50 [2] was over 10000 nM and the IC50 [2] was over 10000 nM. The “Human GPR18 % activation” value [2] was 15%, the “Human GPR18 % inhibition” value [2] was 8% and the “CB1 selectivity Ki CB2/KiCB1” value [3] was 1.2. The Ki [3] was 0.386 ± 0.117 nM and the Ki [4] was 0.478 ± 0.124 nM.
For `O=C(c1cn(CCCCCF)c2ccccc12)C12CC3CC(CC(C3)C1)C2` [Compound 36, 5F-AB001], the EC50 [1] was over 10000 nM, the IC50 [1] was about 10000 nM and the “Human GPR55 % activation” value [1] was 19%. For the same molecule, the “Human GPR55 % inhibition” value [1] was 48%, the EC50 [2] was over 10000 nM and the IC50 [2] was about 10000 nM. The “Human GPR18 % activation” value [2] was −6%, the Ki [3] was 12.3 ± 3 nM and the “CB2 selectivity Ki CB1/KiCB2” value [4] was 8.4. For the same molecule, the Ki [4] was 1.47 ± 1.03 nM.
In the case of `CCCCCn1cc(C(=O)Nc2ccccc2)c2ccccc21` [Compound 14, SDB-006-N-phenyl-analog], the EC50 [1] is reported as over 10000 nM, the IC50 [1] is reported as over 10000 nM and the “Human GPR55 % activation” value [1] is reported as 20%. The “Human GPR55 % inhibition” value [1] was 1%, the EC50 [2] was over 10000 nM and the IC50 [2] was over 10000 nM. The “Human GPR18 % activation” value [2] was 9%, the “Human GPR18 % inhibition” value [2] was −13% and the Ki [3] was 163 ± 17 nM. For the same molecule, the Ki [4] was 275 ± 25 nM.
In the case of `O=C(NC12CC3CC(CC(C3)C1)C2)c1nn(Cc2ccc(F)cc2)c2ccccc12` [Compound 18, N-((3s,5s,7s)-Adamantan-1-yl)-1-(4-fluorobenzyl)-1H-indazole-3-carboxamide], the EC50 [1] is reported as over 10000 nM, the “Human GPR55 % activation” value [1] is reported as −11% and the “Human GPR55 % inhibition” value [1] is reported as “(83 %)”. The EC50 [2] was over 10000 nM, the “Human GPR18 % activation” value [2] was −27% and the “Human GPR18 % inhibition” value [2] was “(69 %)”. For the same molecule, the Ki [3] was 1.06 ± 0.29 nM, the “CB2 selectivity Ki CB1/KiCB2” value [4] was 6.1 and the Ki [4] was 0.174 ± 0.018 nM.
For `CCCCCn1nc(C(=O)Nc2cccc3cccnc23)c2ccccc21` [Compound 10, THJ], the EC50 [1] was over 10000 nM, the IC50 [1] was over 10000 nM and the “Human GPR55 % activation” value [1] was 11%. For the same molecule, the “Human GPR55 % inhibition” value [1] was 50%, the EC50 [2] was over 10000 nM and the IC50 [2] was over 10000 nM. The “Human GPR18 % activation” value [2] was 4%, the “Human GPR18 % inhibition” value [2] was 30% and the “fold higher Ki value at CB1 receptors after introduction of a quinoline” value ([3]; amide-linked group A, compared with naphthyl analogue (8 vs 10; 9 vs 11)) was 14 fold. For the same molecule, the Ki [3] was 103 ± 25 nM, the “CB2 selectivity Ki CB1/KiCB2” value [4] was 8.1 and the Ki [4] was 12.7 ± 4.1 nM.
In the case of `O=C(NC12CC3CC(CC(C3)C1)C2)c1nn(CCCCCF)c2ccccc12` [Compound 17, 5F-APINACA (5F-AKB48)], the “efficacy at CB1 receptor (in words)” value [5] is reported as “activated CB1 receptor more efficaciously than CB2”, the Ki [3] is reported as 1.94 ± 0.55 nM and the “CB2 selectivity Ki CB1/KiCB2” value [4] is reported as 7.3. The Ki [4] was 0.266 ± 0.041 nM.
In the case of `CC1(C)C(C(=O)c2cn(Cc3ccc(F)cc3)c3ccccc23)C1(C)C` [Compound 42, FUB-144], the EC50 [1] is reported as over 10000 nM, the IC50 [1] is reported as about 10000 nM and the “Human GPR55 % activation” value [1] is reported as −3%. The “Human GPR55 % inhibition” value [1] was 62%, the EC50 [2] was over 10000 nM and the IC50 [2] was about 10000 nM. For the same molecule, the “Human GPR18 % activation” value [2] was −12%, the “Human GPR18 % inhibition” value [2] was 74% and the Ki [3] was 14 ± 2.7 nM. The “CB2 selectivity Ki CB1/KiCB2” value [4] was 16.5 and the Ki [4] was 0.846 ± 0.209 nM.
With `O=C(Oc1cccc2cccnc12)c1cn(CCCCCF)c2ccccc12` [Compound 25, 5F-PB-22] the EC50 [1] was over 10000 nM, the IC50 [1] was over 10000 nM and the “Human GPR55 % activation” value [1] was 5%. For the same molecule, the “Human GPR55 % inhibition” value [1] was -10%, the EC50 [2] was over 10000 nM and the IC50 [2] was over 10000 nM. For the same molecule, the “Human GPR18 % activation” value [2] was −5%, the “Human GPR18 % inhibition” value [2] was −5% and the “CB1 selectivity Ki CB2/KiCB1” value [3] was 1.4. It also gave a Ki [3] of 0.468 ± 0.069 nM and a Ki [4] of 0.633 ± 0.058 nM.
